Tested on: OMP-OV38 tumors
Assay: Histology of treated OMP-OV38 tumors
Format: in vivo, NOD/SCID mice
Settings: paclitaxel alone; data not shown
Protocol: The treated OMP-OV38 tumors were analyzed by histology.

CC(=O)O[C@H]1C(=O)[C@@]2(C)[C@H]([C@H](OC(=O)c3ccccc3)[C@]3(O)C[C@H](OC(=O)[C@H](O)[C@@H](NC(=O)c4ccccc4)c4ccccc4)C(C)=C1C3(C)C)[C@]1(OC(C)=O)CO[C@@H]1C[C@@H]2O [paclitaxel]
histology of the tumors: did not show these effects
